According to patent publication US20250154188A1, “C-GLYCOSIDES AS ANTI-INFLAMMATORY AGENTS” (UNIVERSITY OF PITTSBURGH - OF THE COMMONWEALTH SYSTEM OF …, priority 2022, published 2025):

Experiments:
mice with NEC [1] = test: Mouse NEC model, ileal inflammation marker mRNA (qRT-PCR); type: in vivo; conditions: neonatal mice, oral gavage 10 mg per kg body weight per day during NEC induction; FIG. 3-7
Text: Mouse NEC model. Experimental NEC was induced in a well validated and reproducible model in 7-day-old mice of either gender, which were randomly divided into control and test groups, by gavage feeding newborn mice with formula containing Similac Advance infant formula (Abbott Nutrition): Esbilac (PetAg) canine milk replacer, 2:1 ratio, which was supplemented with enteric bacteria made from a stock created from a specimen obtained from an infant with surgical NEC five times per day. Additionally, the mice were subjected to hypoxia (5% O2-95% N2) for 10 min in a hypoxia chamber (Billups-Rothenberg) twice daily for 4 days. The C34 analogues were administered by oral gavage during the induction of NEC at the dose of 10 mg per kg body weight per day. […]
RNA isolation, cDNA synthesis and qPCR. Total RNA was isolated using the RNeasy mini kit (Qiagen) and complementary DNA was synthesized from 0.5 μg RNA using QuantiTect Reverse Transcription kit (Qiagen) following the manufacturer's protocols. The mRNA quantification was performed on the Bio-Rad CFX96 Real-Time System (Bio-Rad) using iTaq™ universal SYBR® Green supermix (Bio-Rad) and Bio-Rad CFX Manager 3.1 software was used to collect data from qRT-PCR. […]
Statistical Analysis. Transcript levels for inflammatory biomarkers were assessed by performing a one-way ANOVA statistical analysis followed by multiple comparison. […]

mice with NEC [2] = test: Mouse NEC model, H&E staining of ileal tissue sections; type: in vivo; conditions: oral gavage 10 mg per kg body weight per day, FIG. 13
Text: Mouse NEC model. Experimental NEC was induced in a well validated and reproducible model in 7-day-old mice of either gender, which were randomly divided into control and test groups, by gavage feeding newborn mice with formula containing Similac Advance infant formula (Abbott Nutrition): Esbilac (PetAg) canine milk replacer, 2:1 ratio, which was supplemented with enteric bacteria made from a stock created from a specimen obtained from an infant with surgical NEC five times per day. Additionally, the mice were subjected to hypoxia (5% O2-95% N2) for 10 min in a hypoxia chamber (Billups-Rothenberg) twice daily for 4 days. The C34 analogues were administered by oral gavage during the induction of NEC at the dose of 10 mg per kg body weight per day. Age-matched breast milk-fed mouse pups were used as non-NEC controls. The relative mRNA expression levels of Toll-like receptor 4 (Tlr4) (FIG. 3), interleukin 6 (Il6) (FIG. 4), interleukin 1 beta (Il1b) (FIG. 5), tumor necrosis factor (Tnf) (FIG. 6) and lipocalin 2 (Lcn2) (FIG. 7) were shown.
Hematoxylin and eosin (H&E) staining. […]

**Q.** Which results are given for `CC(C)CC1OC(COC(=O)CC(C)(C)C)C(OC(=O)CC(C)(C)C)C(OC(=O)CC(C)(C)C)C1OC(=O)CC(C)(C)C` (centres unmarked) [Compound C281]?
**A.** necrotizing enterocolitis inflammation markers Tlr4, Il6, Il1b, Tnf, Lcn2 (relative mRNA expression in ileum) (mice with NEC [1]): robust response; tissue architecture of the intestinal lining (H&E) (mice with NEC [2]): preserve the tissue architecture of the intestinal lining
